Measured values from patent US8993721B2, “Peptides for targeting apoptotic cells and uses thereof” (Kyungpook National University Industry-Academic Cooperation …, priority 2008, dated 2015).
“Also recorded” adds a separate entry of the source.

Assays:
[1] = system: etoposide-treated apoptotic cells (A549, H460, HeLa, L132, RAW); assay: Microscopic observation of binding of the peptide to apoptotic cells (Example 3-1); assay type: cell-based; conditions: 10 μM fluorescein-labeled peptide 4° C. 1 hour
Procedure: Cells were cultured in chamber slide (Nalgene Nunc) and treated with 50 μM etoposide (Sigma) for a given period of time (A549 and HeLa cells: for 15 hours, H460 cells: 24 hours, L132 cells: 3 hours, RAW cells: 6 hours) to induce apoptosis. The cells were cultured in RMPI-1640 medium (A549 and H460 cells) or DMEM (HeLa, L132 and RAW cells) containing antibiotics (penicillin and streptomycin) and 10% FBS. All the cells were subcultured every 3 or 4 days. The apoptosis-induced apoptotic cells were washed with PBS and blocked with 1% BSA at 37° C. for 30 minutes. Then, the cells were reacted with 10 μM of the peptide labeled with fluorescein, at 4° C. for 1 hour. After washing, the cells were reacted with an annexin V reaction buffer containing Alexa594-labeled annexin V (Molecular Probes), at room temperature for 15 minutes. The cells were washed with PBS and then fixed with 4% paraformaldehyde for 5 minutes. Thereafter, after counterstaining using the nuclear stain 4′,6-diamidino-2-phenylindole (DAPI), followed by treatment with a mounting solution (Molecular Probes), images of the cells were obtained under a fluorescence microscope (Zeiss).

[2] = system: apoptotic A549 cells; assay: Competitive inhibition of binding to apoptotic cells by annexin V treatment (Example 3-2); assay type: cell-based, human; conditions: pre-treatment at 0, 200 and 1000 μM; high concentration
Procedure: In order to further investigate the binding properties of the peptide of the present invention (ApoPep-1) to apoptotic cells, competitive inhibition by annexin V was measured. To this end, first, apoptotic A549 cells were pre-treated with annexin V, not labeled with fluorescence, at concentrations of 0, 200 and […]. Then, after reacting the cells with fluorescence-labeled annexin V under the same condition as described in Example <3-1>, the binding of the cells was observed under a fluorescence microscope.
(§1) Further, apoptotic A549 cells were pre-treated with annexin V, not labeled with fluorescence, at a concentration of 1000 μM. Then, after reacting the cells with fluorescence-labeled peptide under the same condition as described in Example <3-1>, the binding of the cells was observed under a fluorescence microscope.

[3] = system: etoposide-treated apoptotic A549 cells; assay: FACS analysis of binding to apoptotic cells (Example 3-3); assay type: cell-based, human
Procedure: As another way of confirming the binding of the peptide of the present invention to apoptotic cells, apoptotic cells were treated with the peptide of the present invention, labeled with fluorescein, and the binding was confirmed through FACS analysis. […] The apoptotic cells or normal cells were reacted with ApoPep-1 (5 μM), ApoPep-2 (10 μM) or a control peptide at the same concentrations, labeled with fluorescein, at 4° C. for 1 hour. Further, the cells were reacted with fluorescein-labeled annexin V at room temperature for 15 minutes. After staining the cells with propodium iodide (PI) simultaneously, followed by washing with PBS, FACS analysis was performed using a FACS instrument (Becton Dickinson).

[4] = system: etoposide-treated apoptotic A549 cells; assay: Microscopic observation of binding of the peptide to apoptotic cells, A549 (Example 9-1); assay type: cell-based, human; conditions: Alexa594-annexin V
Procedure: (§2) Cells were cultured in chamber slide (Nunc) and treated with 50 μM etoposide (Sigma) for 16 hours (A549 cells) or 50 ng/ml trail (R&D Systems) for 16 hours (MDA-MB231 cells) to induce apoptosis. The cells were cultured in RMPI-1640 medium (A549 cells) or DMEM-High (MDA-MB231 cells) containing antibiotics (penicillin and streptomycin) and 10% FBS. All the cells were sub-cultured every 3 or 4 days. The apoptosis-induced apoptotic cells were washed with PBS and blocked with 1% BSA at 37° C. for 30 minutes. Then, the cells were reacted with 10 μM of the peptide labeled with fluorescein, at 4° C. for 1 hour. After washing, the cells were reacted with an annexin V reaction buffer containing Alexa594-labeled annexin V (Invitrogen) at room temperature for 15 minutes. The cells were washed with PBS and then fixed with 4% paraformaldehyde for 5 minutes. After treatment with a mounting solution containing the DAPI nuclear stain, images of the cells were obtained under a fluorescence microscope.

[5] = system: trail-treated apoptotic MDA-MB231 cells; assay: Microscopic observation of binding of the peptide to apoptotic cells, MDA-MB231 (Example 9-1); assay type: cell-based; conditions: Alexa594-annexin V
Procedure: as §2

[6] = system: apoptotic A549 cells; assay: Competitive inhibition of binding to apoptotic cells by annexin V treatment (Example 9-2); assay type: cell-based, human; conditions: pre-treatment at 0, 500 and 1000 μM; high concentration
Procedure: In order to further investigate the binding properties of the polypeptide of the present invention (ApoPep-2) to apoptotic cells, competitive inhibition by annexin V was measured. To this end, first, apoptotic A549 cells were pre-treated with annexin V, not labeled with fluorescence, at concentrations of 0, 500 and 1000 μM. Then, after reacting the cells with fluorescence-labeled annexin V under the same condition as described in Example <9-1>, the binding of the cells was observed under a fluorescence microscope.
as §1, with “<9-1>,” for “<3-1>,”

[7] = system: etoposide-treated apoptotic A549 cells; assay: FACS analysis of binding to apoptotic cells (Example 9-3); assay type: cell-based, human
Procedure: As another way of confirming the binding of the polypeptide of the present invention (ApoPep-2) to apoptotic cells, apoptotic cells were treated with the peptide, labeled with fluorescein, and the binding was confirmed through FACS analysis. First, apoptosis was induced by treating A549 cells with 50 μM etoposide for 20 hours. The apoptotic cells or normal cells were reacted with ApoPep-2 (10 μM) or a control peptide at the same concentration, labeled with fluorescein, at 4° C. or 37° C. for 1 hour. Further, the cells were reacted with fluorescein-labeled annexin V at room temperature for 15 minutes. After washing cells with PBS, FACS analysis was performed using a FACS instrument (Becton Dickinson).

[8] = system: H460 tumor xenotransplanted in nude mice; assay: Radionuclide (micro PET) imaging of targeting of apoptotic cells in tumor (Example 4-2); assay type: in vivo, mouse; conditions: 1 hour after injection
Procedure: Nude mice in which tumor was xenotransplanted using H460 cells were prepared as in Example <2-1>. The mice were grouped into a doxorubicin (Sigma) treated group and untreated group. The treated group was treated with doxorubicin (10 mg/kg) 3 times, with an interval of 48 hours, a week prior to injection of the peptide. The peptide of the present invention (ApoPep-1), labeled with the radioactive isotope ^124I, was injected through the tail vein of each mouse under isoflurane anesthesia (treated group: 91 μCi; untreated group: 93 μCi). Further, ^18F-labeled FDG, which is frequently used for PET, was injected to the doxorubicin treated group and untreated group, at 300 μCi and 304 μCi, respectively. Radionuclide images were obtained using a micro PET instrument (Concorde MicroSystems) 5 hours after the injection of [^124I]ApoPep-1 and 1 hour after the injection of [^18F]FDG.

[9] = system: apoptotic cells in A549 tumor tissue xenotransplanted under the skin of nude mouse; assay: Histological analysis of tumor targeting (Example 2); assay type: in vivo; conditions: fluorescein-labeled peptide, tail vein, 50 μM final, 2 hours circulation; cryosections
Procedure: All animal experiments were performed in accordance with the guideline of the Institutional Animal Care and Use Committee. For tumor xenotransplantation, human lung cancer cells (A549, 1×10^7 cells) suspended in RMPI-1640 medium was subcutaneously injected at the right upper or lower limb of a 6-week-old male BALB/c nude mouse (Hyochang Science). Then, 3 weeks were given for the tumor to grow to a size of 0.5 to 1 cm. The A549 cell line used in the experiment was cultured in RMPI-1640 medium containing 10% fetal bovine serum (FBS) in which antibiotics (penicillin and streptomycin) were included. Subculturing was performed every 3 or 4 days.
The peptides used in the present invention were fluorescein-attached form at the N-terminal. They were synthesized according to the standard Fmoc technique and then isolated through HPLC. The peptide synthesis was performed by an expertise company (Peptron).
The peptide of the present invention (ApoPep-1) or a control peptide (amino acid sequence: NSSSVDK), labeled with fluorescein, was injected into the tail vein of a mouse under isoflurane anesthesia, to a final concentration of 50 μM, and 2 hours was given for circulation.
For histological analysis, the mouse was anesthetized and the abdomen was cut open. After sequentially perfusing phosphate-buffered saline (PBS) and 4% paraformaldehyde through the heart, tumor tissues and organs were removed. Each tissue was cryosected and the peptide of the present invention was observed under a fluorescence microscope (Zeiss). Apoptosis in the tumor tissue was confirmed by TUNEL ([…] terminal deoxynucleotidyl transferase-mediated dUTP nick-end labeling) assay according to the instructions of the manufacturer (Chemicon). Fibrinogen staining was performed by immunohistochemistry using anti-fibrinogen antibody (Abcam) and secondary antibody labeled with Alexa 568, a red fluorescent reagent.

[10] = system: A549 tumor xenotransplanted in nude mice; assay: In vivo fluorescence imaging of targeting of apoptotic cells in tumor (Example 4-1); set-up: species or system mouse; conditions: +Dox (10 mg/kg, 3 times); fluorescein-labeled peptide 50 μM
Procedure: Nude mice in which tumor was xenotransplanted using A549 cells were prepared as in Example <2-1>. The mice were grouped into a doxorubicin (Sigma) treated group (+Dox) and untreated group (−Dox). The treated group was treated with doxorubicin (10 mg/kg) 3 times, with an interval of 48 hours, a week prior to injection of the peptide. At the tail vein of each mouse, the peptide of the present invention or a control peptide, labeled with fluorescein, was injected at a final concentration of 50 μM, under isoflurane anesthesia. Following the injection, in vivo fluorescence images were obtained every hour, from 1 hour to 6 hours after the injection, using an Optix exPlore instrument (GE Healthcare). The images were standardized using the software provided with the instrument.
Further, when the tumor grew considerably (1 cm or larger in diameter), the peptide of the present invention was injected at the same concentration as above, without doxorubicin treatment, and in vivo fluorescence images were obtained at every given time using an IVIS fluorescence imaging system (Chemipro).

[11] = system: brain of stroke rat (middle cerebral artery occlusion/reperfusion); assay: Molecular imaging of stroke (Example 6); assay type: in vivo; conditions: Cy7.5-labeled peptide 50 μM i.v.; one and three hours
Procedure: A stroke model was established by occluding the left middle cerebral artery of a rat for 2 hours, followed by reperfusion. Two hours after the reperfusion, the peptide having an amino sequence represented by SEQ ID NO: 1 (ApoPep-1) and a control peptide, labeled with Cy7.5 NIR fluorescence, was intravenously injected at a final concentration of 50 μM to the stroke rat and a normal rat through the tail vein, under isoflurane anesthesia. One and three hours after the intravenous injection, NIR images of the head portion were obtained. Further, NIR fluorescence images of the brains of the rats of the 3 hour group were obtained.

[12] = system: A549 tumor xenotransplanted in nude mice; assay: In vivo fluorescence imaging of targeting of apoptotic cells in tumor (Example 10); set-up: species or system mouse
Procedure: Nude mice in which tumor was xenotransplanted using A549 cells were prepared as in Example <8-1>. The mice were grouped into a doxorubicin (Sigma) treated group (Dox+) and untreated group (Dox−). The treated group was treated with doxorubicin (5 mg/kg) one time, 12 hours prior to injection of the peptide. At the tail vein of each mouse, the polypeptide of the present invention or a control peptide, labeled with fluorescein or Cy7.5 near-infrared fluorescent dye, was injected at a final concentration of 50 μM, under isoflurane anesthesia. Following the injection, in vivo fluorescence images were obtained 0.5 hours and every hour, from 1 hour to 4 hours, after the injection, using an Optix exPlore instrument (ART). The images were standardized using the software provided with the instrument.

[13] = etoposide 15 hours, fluorescein-annexin V room temperature 15 minutes, PI

annexin V: 36 kDa protein that binds to phosphatidylserine; used to detect apoptotic cells [reference compound]
labeling of normal cells not treated with etoposide ([1]; Alexa594-annexin V): no labeling was observed | labeling of etoposide-treated apoptotic cells (fluorescence microscopy) ([1]; 50 μM etoposide, Alexa594-annexin V room temperature 15 minutes): labeling was observed | fluorescence of labeled annexin V after pre-treatment with unlabeled annexin V [2]: decreased significantly | percentage of the cells stained by both annexin V and PI (fraction Q2, later stage of apoptosis) [3, 13]: 9.4% | percentage of the cells stained only by annexin V (fraction Q4, early stage of apoptosis) [3, 13]: 64.3% | labeling of A549 cells not treated with etoposide ([4]; 10 μM peptide 4° C. 1 hour): no labeling was observed | labeling of etoposide-treated apoptotic A549 cells ([4]; 50 μM etoposide 16 hours, 10 μM fluorescein-labeled peptide 4° C. 1 hour): labeling was observed | labeling of trail-treated apoptotic MDA-MB231 cells ([5]; 50 ng/ml trail 16 hours, 10 μM fluorescein-labeled peptide 4° C. 1 hour): labeling was observed | labeling of MDA-MB231 cells not treated with trail ([5]; 10 μM peptide 4° C. 1 hour): no labeling was observed | fluorescence of labeled annexin V after pre-treatment with unlabeled annexin V [6]: decreased significantly | percentage of the cells stained by annexin V ([7]; etoposide 20 hours, fluorescein-annexin V room temperature 15 minutes): 61%

fluorodeoxyglucose [[^18F]FDG]
PET signal at the tumor site, doxorubicin treated group compared with untreated group [8]: weaker signal

NSSSVDK [control peptide, reference compound]
peptide fluorescence observed in the tumor tissue [9]: hardly observed | binding to apoptotic cells (FACS) ([3]; etoposide-treated A549 cells, 4° C. 1 hour): almost nonexistent | fluorescence signal from the tumor, doxorubicin treated group [10]: weakly detected or almost nonexistent | NIR fluorescence at the head portion of the stroke rat [11]: almost nonexistent | binding to apoptotic cells (FACS) ([7]; etoposide-treated A549, 10 μM, 4° C. or 37° C.): almost nonexistent or minimal | ex vivo fluorescence signal from the kidney ([12]; 4 hours after peptide injection, all the groups, renal clearance): strong | fluorescence signal from the tumor, doxorubicin treated group ([12]; Dox+, Cy7.5-labeled peptide 50 μM): targeting was not observed; also recorded: weakly detected
